Data on 33 molecules can be found in US10961238B2, “Modulators of hedgehog (Hh) signaling pathway” (E-THERAPEUTICS PLC, priority 2016, dated 2021).

Usually IC50 stands for the point on the concentration scale where inhibition reaches its midpoint.

One assay concerns C3H10T1/2 cells. Kind of assay: C3H assay: differentiation of C3H10T1/2 cells by mSHH, measurement of alkaline phosphatase. It is filed as cell-based, mouse. Particulars: C3H10T1/2 cells stimulated with mSHH for 72 hours; alkaline phosphatase activity; read-out: IC50 Ranges.
Regarding `O=C(OCc1cccc([N+](=O)[O-])c1)N1CC(S(=O)(=O)N2CCC(c3c[nH]c4ncccc34)CC2)C1` [Compound 213, (3-nitrophenyl) methyl 3-[4-(1H-pyrrolo[2,3-b]pyridin-3-yl)piperidin-1-yl]sulfonylaze-tidine-1-carboxylate], the IC50 was less than 10 nM. On the same count and under the same terms, to `CC(C)(C)OC(=O)N1CCC(S(=O)(=O)N2CC=C(c3n[nH]c4ncccc34)CC2)CC1` [Compound 229, tert-butyl 4-[[4-(1H-pyrazolo[3,4-b]pyridin-3-yl)-3,6-dihydro-2H-pyridin-1-yl]sulfonyl] piperidine-1-carboxylate] belongs 1000 to 10000 nM.

Staying with this assay, now noted: Mus musculus, C3H 10T1/2, 72 h, read-out: IC50 Ranges.
In the case of `O=C(Oc1cccnc1)N1CC(S(=O)(=O)N2CCC(c3c[nH]c4ncccc34)CC2)C1` [Compound 212, pyridin-3-yl 3-[4-(1H-pyrrolo [2,3-b]pyridin-3-yl)piperidin-1-yl]sulfonylaze-tidine-1-carboxylate], the IC50 lay in the range of 10 to 100 nM.

Still in this assay, the particulars now being: Mus musculus, C3H 10T1/2; C3H10T1/2 cells stimulated with mSHH for 72 hours; alkaline phosphatase activity; read-out: IC50 Ranges.
On to `Cc1cc(C)cc(OC(=O)N2CC(S(=O)(=O)N3CCC(c4c[nH]c5ncccc45)CC3)C2)c1` [Compound 208, (3,5-dimethylphenyl) 3-[4-(1H-pyrrolo[2,3-b]pyridin-3-yl)piperidin-1-yl]sulfonylaze-tidine-1-carboxylate], for which the IC50 lay in the range of 100 to 1000 nM.

With `COc1ccc(COC(=O)N2CC(S(=O)(=O)N3CCC(c4c[nH]c5ncccc45)CC3)C2)cc1F` [Compound 209, (3-fluoro-4-methoxyphenyl) methyl 3-[4-(1H-pyrrolo[2,3-b]pyridin-3-yl)piperidin-1-yl]sulfonylaze-tidine-1-carboxylate], the IC50 fell in the range of 10 to 100 nM. `O=C(OC1CCNCC1)N1CC(S(=O)(=O)N2CCC(c3c[nH]c4ncccc34)CC2)C1` [Compound 210, piperidin-4-yl 3-[4-(1H-pyrrolo[2,3-b]pyridin-3-yl)piperidin-1-yl]sulfonylaze-tidine-1-carboxylate]: the IC50 is 100 to 1000 nM.

Take `CC(C)(C)OC(=O)N1CCC(OC(=O)N2CC(S(=O)(=O)N3CCC(c4c[nH]c5ncccc45)CC3)C2)CC1` [Compound 211, tert-butyl 4-[3-[4-(1H-pyrrolo[2,3-b]pyridin-3-yl)piperidin-1-yl]sulfonylaze-tidine-1-carbonyl] oxypiperidine-1-carboxylate]: the IC50 lay in the range of 10 to 100 nM.

`COc1ccc(COC(=O)N2CC(S(=O)(=O)N3CCC(c4c[nH]c5ncccc45)CC3)C2)cc1` [Compound 214, (4-methoxyphenyl) methyl 3-[4-(1H-pyrrolo[2,3-b]pyridin-3-yl)piperidin-1-yl]sulfonylaze-tidine-1-carboxylate]: the IC50 was in the range of 10 to 100 nM. Same read-out and setting: as for `COc1cccc(OC(=O)N2CC(S(=O)(=O)N3CCC(c4c[nH]c5ncccc45)CC3)C2)c1` [Compound 215, (3-methoxyphenyl) 3-[4-(1H-pyrrolo[2,3-b]pyridin-3-yl)piperidin-1-yl]sulfonylaze-tidine-1-carboxylate], the figure is 10 to 100 nM. Still for that read-out and setting: as for `O=C(OC1CCOCC1)N1CC(S(=O)(=O)N2CCC(c3c[nH]c4ncccc34)CC2)C1` [Compound 218, oxan-4-yl 3-[4-(1H-pyrrolo[2,3-b]pyridin-3-yl)piperidin-1-yl]sulfonylaze-tidine-1-carboxylate], the figure is 10 to 100 nM; as for `COc1ccc(OC(=O)N2CC(S(=O)(=O)N3CCC(c4c[nH]c5ncccc45)CC3)C2)cc1` [Compound 219, (4-methoxyphenyl) 3-[4-(1H-pyrrolo[2,3-b]pyridin-3-yl)piperidin-1-yl]sulfonylaze-tidine-1-carboxylate], 10 to 100 nM. As for `O=C(OC1COCOC1)N1CC(S(=O)(=O)N2CCC(c3c[nH]c4ncccc34)CC2)C1` [Compound 220, 1,3-dioxan-5-yl 3-[4-(1H-pyrrolo[2,3-b]pyridin-3-yl)piperidin-1-yl]sulfonylaze-tidine-1-carboxylate], the IC50 lay in the range of 10 to 100 nM. On the same count and under the same terms, to `CC(C)(C)OC(=O)N1CC(S(=O)(=O)N2CCC(c3c[nH]c4nccc(F)c34)CC2)C1` [Compound 221, tert-butyl 3-[4-(4-fluoro-1H-pyrrolo[2,3-b]pyridin-3-yl)piperidin-1-yl]sulfonylaze-tidine-1-carboxylate] belongs 100 to 1000 nM; to `O=C(OC1COC1)N1CC(S(=O)(=O)N2CCC(c3c[nH]c4ncccc34)CC2)C1` [Compound 222, oxetan-3-yl 3-[4-(1H-pyrrolo[2,3-b]pyridin-3-yl)piperidin-1-yl]sulfonylaze-tidine-1-carboxylate], 100 to 1000 nM. On the same count and under the same terms, to `Cc1[nH]c2ncccc2c1C1CCN(S(=O)(=O)C2CN(C(=O)OC(C)(C)C)C2)CC1` [Compound 224] belongs 1000 to 10000 nM; to `CC(C)(C)OC(=O)N1CC(S(=O)(=O)N2CCN(c3nsc4ccccc34)CC2)C1` [Compound 225, tert-butyl 3-[4-(1,H-benzothiazol-3-yl)piperazin-1-yl]sulfonylaze-tidine-1-carboxylate], 1000 to 10000 nM; to `CC(C)(C)OC(=O)N1CC(S(=O)(=O)N2CCN(c3c[nH]c4ncccc34)CC2)C1` [Compound 226, tert-Butyl 3-[4-(1H-pyrrolo[2,3-b]pyridin-3-yl)piperazin-1-yl]sulfonylazetidine-1-carboxylate], 1000 to 10000 nM.

Consider `COc1ccc(N2CCN(S(=O)(=O)C3CCN(C(=O)OC(C)(C)C)CC3)CC2)cc1` [Compound 227, tert-butyl 4-[4-(4-methoxyphenyl)piperazin-1-yl]sulfonylpiper-idine-1-carboxylate], for which the IC50 was 1000 to 10000 nM. Same read-out and setting: to `CC(C)(C)OC(=O)N1CCC(S(=O)(=O)N2CC=C(c3csc4cccnc34)CC2)CC1` [Compound 230, tert-butyl 4-[(4-thieno[3,2-b]pyridin-3-yl-3,6-dihydro-2H-pyridin-1-yl)sulfonyl]pip eridine-1-carboxylate] belongs 100 to 1000 nM; to `CC(C)(C)OC(=O)N1CC(S(=O)(=O)N2CC=C(c3coc4cccnc34)CC2)C1` [Compound 231, tert-butyl 3-[(4-furo[3,2-b]pyridin-3-yl-3,6-dihydro-2H-pyridin-1-yl)sulfonyl]aze tidine-1-carboxylate], 100 to 1000 nM; to `CC(C)(C)OC(=O)N1CCC(S(=O)(=O)N2CC=C(c3coc4cccnc34)CC2)CC1` [Compound 232, tert-butyl 4-[(4-furo[3,2-b]pyridin-3-yl-3,6-dihydro-2H-pyridin-1-yl)sulfonyl]pip eridine-1-carboxylate], 100 to 1000 nM.

For `CC(C)(C)OC(=O)N1CCC(S(=O)(=O)N2CC=C(c3c[nH]c4ncncc34)CC2)CC1` [Compound 233, tert-butyl 4-[[4-(7H-pyrrolo[2,3-d]pyrimidin-5-yl)-3,6-dihydro-2H-pyridin-1-yl]sulfonyl] piperidine-1-carboxylate], the IC50 lay within 1000 to 10000 nM.

For the molecule `CC(C)(C)OC(=O)N1CC(S(=O)(=O)N2CC=C(c3cnc4occc4c3)CC2)C1` [Compound 234, tert-butyl 3-[(4-furo[2,3-b]pyridin-5-yl-3,6-dihydro-2H-pyridin-1-yl)sulfonyl]aze tidine-1-carboxylate], the IC50 was 100 to 1000 nM. Still for that read-out and setting: to `Cc1ccc(S(=O)(=O)n2cc(C3=CCN(S(=O)(=O)C4CCN(C(=O)OC(C)(C)C)CC4)CC3)c3cncnc32)cc1` [Compound 235, tert-butyl 4-[[4-[7-(4-methylphenyl)sulfonylpyrrolo[2,3-d]pyrimidin-5-yl]-3,6-dihydro-2H-pyridin-1-yl]sulfonyl] piperidine-1-carboxylate] belongs 100 to 1000 nM; to `CC(C)(C)OC(=O)N1CCC(S(=O)(=O)N2CC=C(c3ccnc4[nH]ccc34)CC2)CC1` [Compound 236, tert-butyl 4-[[4-(1H-pyrrolo[2,3-b]pyridin-4-yl)-3,6-dihydro-2H-pyridin-1-yl]sulfonyl] piperidine-1-carboxylate], 1000 to 10000 nM; to `Cc1ccc(S(=O)(=O)n2ccc3c(C4=CCN(S(=O)(=O)C5CCN(C(=O)OC(C)(C)C)CC5)CC4)ccnc32)cc1` [Compound 237, tert-butyl 4-[[4-[1-(4-methylphenyl)sulfonylpyrrolo [2,3-b]pyridin-dihydro-2H-pyridin-1-yl]sulfonyl]piperidine-1-carboxylate], 100 to 1000 nM. Same read-out and setting: as for `CC(C)(C)OC(=O)N1CCC(S(=O)(=O)N2CC=C(c3ncnc4[nH]ccc34)CC2)CC1` [Compound 238, tert-butyl 4-[[4-(7H-pyrrolo[2,3-d]pyrimidin-4-yl)-3,6-dihydro-2H-pyridin-1-yl]sulfonyl] piperidine-l-carboxylate], the figure is 1000 to 10000 nM. On the same count and under the same terms, as for `Cc1cc(C#N)ccc1N1CCN(S(=O)(=O)C2CN(C(=O)OC(C)(C)C)C2)CC1` [Compound 240, tert-butyl 3-[4-(4-cyano-2-methylphenyl)piperazin-1-yl]sulfonylaze-tidine-1-carboxylate], the figure is 1000 to 10000 nM; as for `COC(=O)c1csc(N2CC(S(=O)(=O)N3CCC(c4c[nH]c5ncccc45)CC3)C2)n1` [Compound 241, methyl 2-[3-[4-(1H-pyrrolo[2,3-b]pyridin-3-yl)piperidin-1-yl]sulfonylaze-tidin-1-yl]-1,3-thiazole-4-carboxylate], 100 to 1000 nM; as for `N#Cc1ccnc(N2CC(S(=O)(=O)N3CCC(c4c[nH]c5ncccc45)CC3)C2)c1` [Compound 242, 2-[3-[4-(1H-pyrrolo[2,3-b]pyridin-3-yl)piperidin-1-yl]sulfonylaze-tidin-1-yl] pyridine-4-carbonitrile], 10 to 100 nM.

Consider `CCOc1cccc(N2CC(S(=O)(=O)N3CCC(c4c[nH]c5ncccc45)CC3)C2)n1` [Compound 243, 3-[1-[1-(6-ethoxypyridin-2-yl)azetidin-3-yl]sulfonylpiper-idin-4-yl]-1H-pyrrolo[2,3-b]pyridine], for which the 50% inhibitory concentration (IC50) lay within 10 to 100 nM. Still for that read-out and setting: as for `COC(=O)c1cnc(N2CC(S(=O)(=O)N3CCC(c4c[nH]c5ncccc45)CC3)C2)s1` [Compound 245, methyl 2-[3-[4-(1H-pyrrolo[2,3-b]pyridin-3-yl)piperidin-1-yl]sulfonylaze-tidin-1-yl]-1,3-thiazole-5-carboxylate], the figure is 100 to 1000 nM; as for `COC(=O)c1coc(N2CC(S(=O)(=O)N3CCC(c4c[nH]c5ncccc45)CC3)C2)n1` [Compound 246, methyl 2-[3-[4-(1H-pyrrolo[2,3-b]pyridin-3-yl)piperidin-1-yl]sulfonylaze-tidin-1-yl]-1,3-oxazole-4-carboxylate], 100 to 1000 nM.
